Reference: patent publication US12234221B2, “Pyridine carboxamide compounds for inhibiting NAV1.8” (Lieber Institute, Inc., priority 2018, dated 2025)

target: T1, human Nav1.8 (hNav1.8) ion channel (Homo sapiens, UniProt Q9Y5Y9); test: Nav1.8 channel inhibition, estimated IC50 (one or more of: fluorescence inhibition assay, PatchXpress, IonFlux HT automated patch clamp); assay type: cell-based; conditions: HEK293 cells stably expressing hNav1.8; method used per compound not stated; read-out: Activity range (estimated IC50)
T1 construct: expressed in transfected cells; host or cells: HEK293
Procedure, shortened: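 HEK293 cells stably expressing hNav1.8 with β1/β2 subunits; IC50 from the fluorescence assay and/or automated whole-cell patch clamp (PatchXpress, IonFlux HT). Fluorescence: ANG-2 Na dye, 5 min compound preincubation (0.02–5 μM, 1% DMSO) with 30 μM ouabain, stimulation by 10 μM deltamethrin, peak signal fit logistically. PatchXpress: holding potential reset to Vhalf, inhibition normalized to control/washout currents.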

T1 sequence (Q9Y5Y9 whole entry): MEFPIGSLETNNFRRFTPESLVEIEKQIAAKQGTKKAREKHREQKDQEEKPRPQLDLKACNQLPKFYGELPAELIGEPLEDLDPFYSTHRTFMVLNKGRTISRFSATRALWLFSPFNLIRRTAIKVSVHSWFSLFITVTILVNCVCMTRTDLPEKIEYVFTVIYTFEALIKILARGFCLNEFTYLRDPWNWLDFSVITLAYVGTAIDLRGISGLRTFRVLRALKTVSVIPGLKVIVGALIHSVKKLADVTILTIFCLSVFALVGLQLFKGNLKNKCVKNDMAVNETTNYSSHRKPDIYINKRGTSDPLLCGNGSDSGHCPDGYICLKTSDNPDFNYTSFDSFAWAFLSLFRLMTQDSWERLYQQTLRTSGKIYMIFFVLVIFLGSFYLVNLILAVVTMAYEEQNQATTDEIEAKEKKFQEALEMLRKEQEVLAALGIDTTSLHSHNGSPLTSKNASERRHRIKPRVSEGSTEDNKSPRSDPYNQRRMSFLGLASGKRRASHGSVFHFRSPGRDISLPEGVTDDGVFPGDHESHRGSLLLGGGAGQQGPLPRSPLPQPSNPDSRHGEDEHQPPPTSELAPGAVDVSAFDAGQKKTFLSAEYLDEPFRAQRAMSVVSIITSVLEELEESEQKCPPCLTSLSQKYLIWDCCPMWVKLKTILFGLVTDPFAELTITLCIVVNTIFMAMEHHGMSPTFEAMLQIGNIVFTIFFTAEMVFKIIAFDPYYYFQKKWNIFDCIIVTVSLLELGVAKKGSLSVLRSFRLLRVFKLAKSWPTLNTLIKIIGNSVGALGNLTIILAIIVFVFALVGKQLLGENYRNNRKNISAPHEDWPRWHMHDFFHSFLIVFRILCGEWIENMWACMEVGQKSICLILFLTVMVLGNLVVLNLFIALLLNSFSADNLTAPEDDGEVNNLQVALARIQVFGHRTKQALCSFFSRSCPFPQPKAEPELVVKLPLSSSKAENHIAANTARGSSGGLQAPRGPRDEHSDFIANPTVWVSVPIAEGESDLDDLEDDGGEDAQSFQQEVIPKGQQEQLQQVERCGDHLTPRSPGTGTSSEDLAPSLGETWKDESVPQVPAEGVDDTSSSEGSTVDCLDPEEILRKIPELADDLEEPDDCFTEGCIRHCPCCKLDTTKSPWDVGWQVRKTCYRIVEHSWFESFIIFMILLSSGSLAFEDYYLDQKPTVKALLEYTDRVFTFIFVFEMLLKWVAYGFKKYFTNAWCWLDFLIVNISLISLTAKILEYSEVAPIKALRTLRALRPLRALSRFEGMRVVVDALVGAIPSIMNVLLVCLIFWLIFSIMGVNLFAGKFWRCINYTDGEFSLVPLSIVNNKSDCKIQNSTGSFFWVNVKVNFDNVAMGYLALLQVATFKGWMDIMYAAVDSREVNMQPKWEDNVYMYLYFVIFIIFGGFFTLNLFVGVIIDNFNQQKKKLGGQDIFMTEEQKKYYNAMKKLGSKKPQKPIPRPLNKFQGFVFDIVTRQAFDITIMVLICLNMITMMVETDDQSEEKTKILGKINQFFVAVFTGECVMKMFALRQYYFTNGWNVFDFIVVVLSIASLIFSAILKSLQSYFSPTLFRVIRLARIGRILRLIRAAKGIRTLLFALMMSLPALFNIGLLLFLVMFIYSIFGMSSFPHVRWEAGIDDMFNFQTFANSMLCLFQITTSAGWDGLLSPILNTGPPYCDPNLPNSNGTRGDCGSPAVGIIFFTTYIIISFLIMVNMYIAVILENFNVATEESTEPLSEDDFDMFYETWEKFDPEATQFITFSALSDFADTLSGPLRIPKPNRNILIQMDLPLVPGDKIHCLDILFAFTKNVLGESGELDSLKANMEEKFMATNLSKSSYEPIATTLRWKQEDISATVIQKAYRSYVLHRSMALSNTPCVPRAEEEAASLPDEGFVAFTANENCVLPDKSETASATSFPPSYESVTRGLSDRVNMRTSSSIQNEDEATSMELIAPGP

**Q.** How did the IC50 turn out when `COc1cc(F)ccc1Oc1ncc(C(F)(F)F)cc1C(=O)Nc1cccc(N=S(C)(C)=O)c1` [Example 20, N-[3-[[dimethyl(oxo)-λ^6-sulfanylidene]amino]phenyl]-2-(4-fluoro-2-methoxy-phenoxy)-5-(trifluoromethyl)pyridine-3-carboxamide] was run?
**A.** > 1000 nM

**Q.** With `CN(C)S(=O)(=O)c1cccc(NC(=O)c2cc(C(F)(F)F)cnc2Oc2ccc(OC(F)(F)F)cc2Cl)c1` [Example 154, 2-[2-chloro-4-(trifluoromethoxy)phenoxy]-N-[3-(dimethylsulfamoyl)phenyl]-5-(trifluoromethyl)pyridine-3-carboxamide] as the compound, how does the IC50 read?
**A.** > 1000 nM

**Q.** How did the IC50 turn out when `Cn1cc(NC(=O)c2cc(C(F)(F)F)cnc2Oc2ccc(OC(F)(F)F)cc2Cl)cn1` [Example 147, 2-[2-chloro-4-(trifluoromethoxy)phenoxy]-N-(1-methylpyrazol-4-yl)-5-(trifluoromethyl)pyridine-3-carboxamide] was run?
**A.** < 500 nM

**Q.** Which IC50 does the source give for `COc1ccc(Oc2ncc(C(F)(F)F)cc2C(=O)Nc2cccc(S(C)(=N)=O)c2)c(Cl)c1` (stereo not drawn) [Example 61, 2-(2-chloro-4-methoxy-phenoxy)-N-[3-(methylsulfonimidoyl)phenyl]-5-(trifluoromethyl)pyridine-3-carboxamide] here?
**A.** < 500 nM

**Q.** For `COc1cc(F)ccc1Oc1cc(C(F)(F)F)ncc1C(=O)Nc1cc(S(C)(=O)=O)ccc1F` [Example 69, 4-(4-fluoro-2-methoxy-phenoxy)-N-(2-fluoro-5-methylsulfonyl-phenyl)-6-(trifluoromethyl)pyridine-3-carboxamide], which IC50 is on record?
**A.** < 500 nM

**Q.** For `COc1cc(NC(=O)c2cc(C(F)(F)F)cnc2Oc2ccc(F)cc2OC)ccn1` [Example 15, 2-(4-fluoro-2-methoxy-phenoxy)-N-(2-methoxy-4-pyridyl)-5-(trifluoromethyl)pyridine-3-carboxamide], which IC50 is on record?
**A.** > 1000 nM

**Q.** For `COc1ccc(Oc2ncc(C(F)(F)F)cc2C(=O)Nc2ccc[n+]([O-])c2)c(OC)c1` [Example 137, 3-(2-(2,4-dimethoxyphenoxy)-5-(trifluoromethyl)nicotinamido)pyridine 1-oxide], which IC50 is on record?
**A.** < 500 nM

**Q.** For `COc1cc(F)ccc1Oc1ncc(C(F)(F)F)cc1C(=O)Nc1ccnnc1` [Example 19, 2-(4-fluoro-2-methoxy-phenoxy)-N-pyridazin-4-yl-5-(trifluoromethyl)pyridine-3-carboxamide], which IC50 is on record?
**A.** 500 to 1000 nM

**Q.** For `CS(=O)(=O)c1cccc(NC(=O)c2cc(C(F)(F)F)cnc2Oc2cc(F)c(F)c(F)c2)c1` [Example 55, N-(3-methylsulfonyl-phenyl)-5-(trifluoromethyl)-2-(3,4,5-trifluorophenoxy)pyridine-3-carboxamide], which IC50 is on record?
**A.** 500 to 1000 nM

**Q.** For `Cc1cc(OC(F)(F)F)ccc1Oc1ncc(C(F)(F)F)cc1C(=O)Nc1cccc(S(C)(=O)=O)c1` [Example 37, N-(3-methylsulfonyl-phenyl)-2-[2-methyl-4-(trifluoromethoxy)phenoxy]-5-(trifluoromethyl)pyridine-3-carboxamide], which IC50 is on record?
**A.** < 500 nM

**Q.** How did the IC50 turn out when `CN(C)C(=O)c1cccc(NC(=O)c2cc(C(F)(F)F)cnc2Oc2ccc(OC(F)(F)F)cc2Cl)c1` [Example 151, 2-[2-chloro-4-(trifluoromethoxy)phenoxy]-N-[3-(dimethylcarbamoyl)phenyl]-5-(trifluoromethyl)pyridine-3-carboxamide] was run?
**A.** < 500 nM

**Q.** How did the IC50 turn out when `NS(=O)(=O)c1cccc(NC(=O)c2cc(C(F)(F)F)cnc2Oc2ccc(OC(F)(F)F)cc2)c1` [Example 122, N-(3-sulfamoylphenyl)-2-[4-(trifluoromethoxy)phenoxy]-5-(trifluoromethyl)pyridine-3-carboxamide] was run?
**A.** < 500 nM

**Q.** How did the IC50 turn out when `CS(=N)(=O)c1cccc(NC(=O)c2cc(C(F)(F)F)cnc2Oc2ccc(OC(F)(F)F)cc2)c1` (single isomer, unassigned) [Example 130, N-[3-(methylsulfonimidoyl)phenyl]-2-[4-(trifluoromethoxy)phenoxy]-5-(trifluoromethyl)pyridine-3-carboxamide] was run?
**A.** < 500 nM

**Q.** For `CN=S(C)(=O)c1cccc(NC(=O)c2cnc(C(F)(F)F)cc2Oc2ccc(F)cc2OC)c1` (stereo not drawn) [Example 70, N-[3-(N,S-dimethylsulfonimidoyl)phenyl]-4-(4-fluoro-2-methoxy-phenoxy)-6-(trifluoromethyl)pyridine-3-carboxamide], which IC50 is on record?
**A.** < 500 nM

**Q.** `COc1cc(F)ccc1Oc1cc(C(F)(F)F)ncc1C(=O)Nc1ccc[n+]([O-])c1` [Example 84, 4-(4-fluoro-2-methoxy-phenoxy)-N-(1-oxidopyridin-1-ium-3-yl)-6-(trifluoromethyl)pyridine-3-carboxamide] was tested. Which IC50 did it give?
**A.** 500 to 1000 nM

**Q.** Which IC50 does the source give for `CS(=N)(=O)c1cccc(NC(=O)c2cc(C(F)(F)F)cnc2Oc2ccc(OC(F)(F)F)cc2)c1` (single isomer, unassigned) [Example 131, N-[3-(methylsulfonimidoyl)phenyl]-2-[4-(trifluoromethoxy)phenoxy]-5-(trifluoromethyl)pyridine-3-carboxamide] here?
**A.** < 500 nM

**Q.** For `COc1cc(F)ccc1Oc1ncc(C(F)(F)F)cc1C(=O)Nc1ccc(C#N)cc1` [Example 5, N-(4-cyanophenyl)-2-(4-fluoro-2-methoxy-phenoxy)-5-(trifluoromethyl)pyridine-3-carboxamide], which IC50 is on record?
**A.** > 1000 nM

**Q.** Which IC50 does the source give for `COc1cc(F)ccc1Oc1ncc(Cl)cc1C(=O)Nc1cccc(S(C)(=O)=O)c1` [Example 119, 5-chloro-2-(4-fluoro-2-methoxy-phenoxy)-N-(3-methylsulfonylphenyl)pyridine-3-carboxamide] here?
**A.** 500 to 1000 nM

**Q.** How did the IC50 turn out when `CS(=O)(=O)c1cccc(NC(=O)c2cc(C(F)(F)F)cnc2Oc2ccc(OC(F)(F)F)c(F)c2)c1` [Example 40, 2-[3-fluoro-4-(trifluoromethoxy)phenoxy]-N-(3-methylsulfonyl-phenyl)-5-(trifluoromethyl)pyridine-3-carboxamide] was run?
**A.** < 500 nM

**Q.** Which IC50 does the source give for `CN=S(C)(=O)c1cccc(NC(=O)c2cc(C(F)(F)F)cnc2Oc2ccc(F)cc2OC)c1` (stereo not drawn) [Example 16, N-[3-(N,S-dimethylsulfonimidoyl)phenyl]-2-(4-fluoro-2-methoxy-phenoxy)-5-(trifluoromethyl)pyridine-3-carboxamide] here?
**A.** < 500 nM

**Q.** How did the IC50 turn out when `Cc1cc(F)ccc1Oc1cc(C(F)(F)F)ncc1C(=O)Nc1ccnnc1` [Example 95, 4-(4-fluoro-2-methyl-phenoxy)-N-pyridazin-4-yl-6-(trifluoromethyl)pyridine-3-carboxamide] was run?
**A.** < 500 nM

**Q.** Which IC50 does the source give for `Cc1cccc(C)c1Oc1ncc(C(F)(F)F)cc1C(=O)Nc1cccc(S(C)(=O)=O)c1` [Example 33, 2-(2,6-dimethylphenoxy)-N-(3-methylsulfonylphenyl)-5-(trifluoromethyl)pyridine-3-carboxamide] here?
**A.** > 1000 nM

**Q.** Which IC50 does the source give for `CS(=O)(=O)c1cccc(NC(=O)c2cc(C(F)(F)F)cnc2Oc2ccc(C(F)(F)F)nc2)c1` [Example 57, N-(3-methylsulfonyl-phenyl)-5-(trifluoromethyl)-2-[[6-(trifluoromethyl)-3-pyridyl]oxy]pyridine-3-carboxamide] here?
**A.** > 1000 nM

**Q.** How did the IC50 turn out when `CS(=N)(=O)c1cccc(NC(=O)c2cnc(C(F)(F)F)cc2Oc2ccc(OC(F)(F)F)cc2Cl)c1` (stereo not drawn) [Example 80, 4-[2-chloro-4-(trifluoromethoxy)phenoxy]-N-[3-(methylsulfonimidoyl)phenyl]-6-(trifluoromethyl)pyridine-3-carboxamide] was run?
**A.** < 500 nM

**Q.** `COc1cc(F)ccc1Oc1ncc(C(F)(F)F)cc1C(=O)Nc1cccc(S(C)(=O)=O)c1` [Example 35, 2-(4-fluoro-2-methoxy-phenoxy)-N-(3-methylsulfonyl-phenyl)-5-(trifluoromethyl)pyridine-3-carboxamide] was tested. Which IC50 did it give?
**A.** < 500 nM

**Q.** Which IC50 does the source give for `COc1cc(F)ccc1Oc1ncc(C2CC2)cc1C(=O)Nc1cccc(S(C)(=O)=O)c1` [Example 112, 5-cyclopropyl-2-(4-fluoro-2-methoxy-phenoxy)-N-(3-methylsulfonylphenyl)pyridine-3-carboxamide] here?
**A.** > 1000 nM

**Q.** `COc1cc(F)ccc1Oc1nc(C(F)(F)F)ccc1C(=O)Nc1cccc(S(C)(=O)=O)c1` [Example 66, 2-(4-fluoro-2-methoxy-phenoxy)-N-(3-methylsulfonylphenyl)-6-(trifluoromethyl)pyridine-3-carboxamide] was tested. Which IC50 did it give?
**A.** < 500 nM

**Q.** With `C[S+]([O-])c1cccc(NC(=O)c2cnc(C(F)(F)F)cc2Oc2ccc(OC(F)(F)F)cc2Cl)c1` (stereo not drawn) [Example 75, 4-[2-chloro-4-(trifluoromethoxy)phenoxy]-N-(3-methylsulfinylphenyl)-6-(trifluoromethyl)pyridine-3-carboxamide] as the compound, how does the IC50 read?
**A.** < 500 nM

**Q.** `CS(=O)(=O)c1cccc(NC(=O)c2cc(C(F)(F)F)cnc2Oc2ccc(Cl)cc2Cl)c1` [Example 21, 2-(2,4-dichlorophenoxy)-N-(3-methylsulfonylphenyl)-5-(trifluoromethyl)pyridine-3-carboxamide] was tested. Which IC50 did it give?
**A.** < 500 nM

**Q.** `CS(=O)(=O)c1cccc(NC(=O)c2cc(C(F)(F)F)cnc2Oc2cc(F)ccc2F)c1` [Example 43, 2-(2,5-difluorophenoxy)-N-(3-methylsulfonyl-phenyl)-5-(trifluoromethyl)pyridine-3-carboxamide] was tested. Which IC50 did it give?
**A.** 500 to 1000 nM

**Q.** Which IC50 does the source give for `CS(=O)(=O)c1ccc(F)c(NC(=O)c2cnc(C(F)(F)F)cc2Oc2ccc(OC(F)(F)F)cc2Cl)c1` [Example 77, 4-[2-chloro-4-(trifluoromethoxy)phenoxy]-N-(2-fluoro-5-methylsulfonyl-phenyl)-6-(trifluoromethyl)pyridine-3-carboxamide] here?
**A.** < 500 nM

**Q.** `CS(=N)(=O)c1cccc(NC(=O)c2cnc(C(F)(F)F)cc2Oc2ccc(OC(F)(F)F)cc2)c1` (stereo not drawn) [Example 91, N-[3-(methylsulfonimidoyl)phenyl]-4-[4-(trifluoromethoxy)phenoxy]-6-(trifluoromethyl)pyridine-3-carboxamide] was tested. Which IC50 did it give?
**A.** < 500 nM

**Q.** For `CCS(=O)(=O)c1cccc(NC(=O)c2cc(C(F)(F)F)cnc2Oc2ccc(OC(F)(F)F)cc2Cl)c1` [Example 143, 2-[2-chloro-4-(trifluoromethoxy)phenoxy]-N-(3-ethylsulfonylphenyl)-5-(trifluoromethyl)pyridine-3-carboxamide], which IC50 is on record?
**A.** 500 to 1000 nM
